The assay concerns the target T1, ADAR1 (Homo sapiens, UniProt P55265).
T1 construct: endogenous in cells; host or cells: p110 KO A549 dual cells
T1 sequence (P55265 1-1226): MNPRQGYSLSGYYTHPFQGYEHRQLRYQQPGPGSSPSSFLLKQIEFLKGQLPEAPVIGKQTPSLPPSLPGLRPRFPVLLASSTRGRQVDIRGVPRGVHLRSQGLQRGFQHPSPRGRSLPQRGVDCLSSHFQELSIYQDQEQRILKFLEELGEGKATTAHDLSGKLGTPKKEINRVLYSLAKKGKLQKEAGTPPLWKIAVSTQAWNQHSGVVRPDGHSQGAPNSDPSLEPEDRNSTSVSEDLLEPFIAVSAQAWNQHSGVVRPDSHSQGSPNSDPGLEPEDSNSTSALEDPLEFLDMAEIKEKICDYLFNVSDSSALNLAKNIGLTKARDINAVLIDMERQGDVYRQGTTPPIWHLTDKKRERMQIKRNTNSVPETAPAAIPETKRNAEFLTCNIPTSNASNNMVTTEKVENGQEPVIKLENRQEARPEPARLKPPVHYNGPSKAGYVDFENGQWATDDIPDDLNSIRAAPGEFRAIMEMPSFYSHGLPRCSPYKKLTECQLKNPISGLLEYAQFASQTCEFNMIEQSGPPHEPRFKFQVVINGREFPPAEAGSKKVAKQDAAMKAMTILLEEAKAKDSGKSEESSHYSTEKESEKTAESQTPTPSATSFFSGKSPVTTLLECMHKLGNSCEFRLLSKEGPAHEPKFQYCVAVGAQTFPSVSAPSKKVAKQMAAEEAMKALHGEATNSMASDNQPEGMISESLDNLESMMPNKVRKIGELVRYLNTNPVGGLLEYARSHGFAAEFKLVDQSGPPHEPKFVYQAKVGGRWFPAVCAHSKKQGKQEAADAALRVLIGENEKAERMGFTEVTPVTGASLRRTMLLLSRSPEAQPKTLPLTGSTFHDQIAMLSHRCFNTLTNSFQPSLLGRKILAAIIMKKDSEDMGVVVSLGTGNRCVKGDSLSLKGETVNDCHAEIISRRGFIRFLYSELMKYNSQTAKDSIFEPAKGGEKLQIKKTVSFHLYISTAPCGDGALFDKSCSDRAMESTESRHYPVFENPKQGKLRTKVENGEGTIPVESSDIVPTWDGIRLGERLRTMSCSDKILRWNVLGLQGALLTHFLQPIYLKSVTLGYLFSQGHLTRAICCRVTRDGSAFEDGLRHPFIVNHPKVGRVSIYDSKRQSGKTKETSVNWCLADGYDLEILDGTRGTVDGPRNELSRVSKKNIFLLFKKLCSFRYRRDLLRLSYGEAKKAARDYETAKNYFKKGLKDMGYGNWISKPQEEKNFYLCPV
Kind of assay: ADAR1 Inhibition Assay (IFN fold-induction, Quanti-Luc luminescence, p110 KO A549 dual cells). The assay is classed as cell-based. The settings on record: IFN fold-induction vs DMSO, 24 and 48 h. Summed up:
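p110 KO A549 dual cells (20,000/well) in supplemented DMEM, treated next day with compound at 1% final DMSO for 24 and 48 h at 37 °C, 5% CO2. Supernatant luminescence read with Quanti-Luc; IFN fold-induction = sample RLU/mean DMSO RLU, used for EC50.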

The results in this text go back to patent US20260200890A1, “ADAR1 INHIBITORS AND METHODS OF USING THE SAME” (AVAMMUNE THERAPEUTICS INC., priority 2022, published 2026).

As to `CCOC(=O)c1cc(-c2ccccc2)sc1NC(=O)N1CCN(C(=O)c2cccc(NS(C)(=O)=O)c2)CC1` [Compound 167], the concentration for a half-maximal effect (EC50) (usually the concentration that produces a half-maximal response) was greater than 100 µM.

With `CCOC(=O)c1cc(-c2ccccc2)sc1NC(=O)C1CCN(C(=O)c2cccc(NS(C)(=O)=O)c2)CC1` [Compound 168], the EC50 was greater than 100 µM.

As for `CCOC(=O)c1cc(-c2ccccc2)sc1NC(=O)CCNc1cccc(NS(C)(=O)=O)c1` [Compound 169], the EC50 was greater than 100 µM.

On to `CCOC(=O)c1cc(-c2ccncc2)sc1NC(=O)COC(=O)c1cccc(NS(C)(=O)=O)c1` [Compound 170], for which the EC50 is greater than 100 µM.

`CS(=O)(=O)Nc1cccc(C(=O)N2CCC(C(=O)Nc3nnc(-c4ccccc4)s3)C2)c1` (stereo not drawn) [Compound 173] had a concentration for a half-maximal effect (EC50) greater than 100 µM.

`CCOC(=O)c1cc(-c2ccccc2)sc1NC(=O)COC(=O)c1cccc(S(C)(=N)=O)c1` (stereo not drawn) [Compound 174] gave an EC50 greater than 100 µM.

With `CCOC(=O)c1cc(-c2ccccc2)sc1NC(=O)Cn1cnc2c(N)ncnc21` [Compound 176], the EC50 is greater than 100 µM.

In the case of `CCOC(=O)c1cc(-c2ccccc2)sc1NC(=O)COC(=O)c1cccc(CNS(C)(=O)=O)c1` [Compound 177], the concentration giving a half-maximal response (EC50) is greater than 100 µM.

With `CCOC(=O)c1cc(-c2ccccc2)sc1NC(=O)COC(=O)N1CCN(S(C)(=O)=O)CC1` [Compound 178], the EC50 is greater than 100 µM.

As for `CCOC(=O)c1cc(-c2ccccc2)sc1NC(=O)COCc1cccc(N(S(C)(=O)=O)S(C)(=O)=O)c1` [Compound 179], the concentration for a half-maximal effect (EC50) is greater than 100 µM.

In turn, `CCOC(=O)c1cc(-c2ccccc2)sc1NC(=O)Cn1cc(-c2cccc(NS(C)(=O)=O)c2)nn1` [Compound 181] registered a half-maximal effective concentration (EC50) greater than 100 µM.

Turning to `CCOC(=O)c1cc(-c2ccccc2)sc1NC(=O)Cn1nncc1-c1cccc(NS(C)(=O)=O)c1` [Compound 182], the EC50 is greater than 100 µM.

The molecule `CCOC(=O)c1cc(-c2ccccc2)sc1NC(=O)COC(=O)c1cccc(NS(C)(=O)=O)n1` [Compound 183] gave a concentration giving a half-maximal response (EC50) greater than 100 µM.

In the case of `CCOC(=O)c1cc(-c2ccccc2)sc1NC(=O)C1CCN(Cc2cccc(NS(C)(=O)=O)c2)C1` (stereo not drawn) [Compound 184], the EC50 was greater than 100 µM.

With `CS(=O)(=O)Nc1cccc(C(=O)OCC(=O)Nc2nnc(-c3ccccc3)o2)c1` [Compound 185], the EC50 is greater than 100 µM.

`CN(C)C(=O)c1cc(-c2ccccc2)sc1NC(=O)COC(=O)c1cccc(NS(C)(=O)=O)c1` [Compound 186] showed an EC50 greater than 100 µM.

In the case of `CCOC(=O)c1cc(-c2ccccc2)sc1NC(=O)COC(=O)c1cccc(N)c1` [Compound 187], the concentration giving a half-maximal response (EC50) was greater than 100 µM.

Regarding `CCOC(=O)c1cc(-c2ccccc2F)sc1NC(=O)COC(=O)c1cccc(NS(C)(=O)=O)c1` [Compound 188], the EC50 was greater than 100 µM.

For the molecule `CCOC(=O)c1cc(-c2ccccc2)ncc1NC(=O)COC(=O)c1cccc(NS(C)(=O)=O)c1` [Compound 189], the EC50 was no more than 25 µM.

For `CCOC(=O)c1c(NC(=O)COC(=O)c2cccc(NS(C)(=O)=O)c2)sc(-c2ccccc2)c1C` [Compound 190], the EC50 is greater than 100 µM.

On to `COC(=O)c1cc(-c2ccccc2)sc1NC(=O)COC(=O)c1cccc(NS(C)(=O)=O)c1` [Compound 191], for which the EC50 was greater than 100 µM.

Turning to `CCOC(=O)c1cc(-c2cccc(C)c2)sc1NC(=O)COC(=O)c1cccc(NS(C)(=O)=O)c1` [Compound 192], the EC50 is greater than 100 µM.

For `CCOC(=O)c1cc(-c2ccccc2)sc1NC(=O)COC(=O)c1cccc(S(=O)(=O)NC(=O)CC)c1` [Compound 193], the EC50 was greater than 100 µM.

The molecule `CS(=O)(=O)Nc1cccc(NC(=O)CSc2nc(N)nc3nc[nH]c23)c1` [Compound 194] yielded a 50% effective concentration (EC50) greater than 100 µM.

`CCOC(=O)c1cc(-c2ccccc2)sc1NC(=O)C(C)OC(=O)c1cccc(NS(C)(=O)=O)c1` (stereo not drawn) [Compound 195]: the EC50 was greater than 100 µM.

For `CCOC(=O)c1cc(Cc2ccccc2)sc1NC(=O)COC(=O)c1cccc(NS(C)(=O)=O)c1` [Compound 196], the EC50 is greater than 100 µM.

Turning to `CCOC(=O)c1cc(-c2ccccc2C#N)sc1NC(=O)COC(=O)c1cccc(NS(C)(=O)=O)c1` [Compound 197], the 50% effective concentration (EC50) was greater than 100 µM.

`CCOC(=O)c1cc(-c2ccc(N3CCNCC3)cc2)sc1NC(=O)COC(=O)c1cccc(NS(C)(=O)=O)c1` [Compound 198] yielded an EC50 greater than 100 µM.

With `CCOC(=O)c1cc(-c2ccccc2)sc1NC(=O)COC(=O)c1cccc(N(C)C)c1` [Compound 199], the EC50 is greater than 100 µM.

For `CS(=O)(=O)Nc1cccc(C(=O)OCC(=O)n2cnc3cnc(N)nc32)c1` [Compound 200], the EC50 is greater than 100 µM.

On to `CCOC(=O)c1cc(-c2ccccc2OC(F)(F)F)sc1NC(=O)COC(=O)c1cccc(NS(C)(=O)=O)c1` [Compound 201], for which the EC50 is greater than 100 µM.

For `CCOC(=O)c1cc(-c2cccc(OC(F)(F)F)c2)sc1NC(=O)COC(=O)c1cccc(NS(C)(=O)=O)c1` [Compound 202], the EC50 was greater than 100 µM.

Molecule `CC(C)(C)OC(=O)COC(=O)c1cc(-c2ccccc2)sc1NC(=O)COC(=O)c1cccc(NS(C)(=O)=O)c1` [Compound 203] came in with an EC50 greater than 100 µM.

Regarding `CCOC(=O)c1cc(C)sc1NC(=O)COC(=O)c1cccc(NS(C)(=O)=O)c1` [Compound 204], the EC50 is greater than 100 µM.

`CCOC(=O)c1cc(-c2ccc(OC)cc2)sc1NC(=O)COC(=O)c1cccc(NS(C)(=O)=O)c1` [Compound 205]: the EC50 is greater than 100 µM.

Molecule `CCOC(=O)c1nc(-c2ccccc2)sc1NC(=O)C1CCN(C(=O)c2cccc(NS(C)(=O)=O)c2)C1` (stereo not drawn) [Compound 206] yielded an EC50 greater than 100 µM.

Take `CCOC(=O)c1cc(-c2ccccc2)sc1NC(=O)COCc1cccc(NS(C)(=O)=O)c1` [Compound 207]: the EC50 was greater than 100 µM.

`CCOC(=O)c1cc(-c2ccccc2)sc1NC(=O)COC1CCN(C(=O)c2cccc(NS(C)(=O)=O)c2)CC1` [Compound 208] came in with an EC50 greater than 100 µM.

In the case of `CS(=O)(=O)Nc1cccc(C(=O)OCC(=O)Nc2sc(-c3ccccc3)cc2C(=O)OCC(=O)O)c1` [Compound 209], the EC50 is greater than 100 µM.

In the case of `CCOC(=O)c1cc(-c2ccccc2)ncc1NC(=O)C1CCN(C(=O)c2cccc(NS(C)(=O)=O)c2)C1` (stereo not drawn) [Compound 210], the 50% effective concentration (EC50) is greater than 100 µM.

Molecule `CCOC(=O)c1cc(-c2cccc(OC)c2)sc1NC(=O)COC(=O)c1cccc(NS(C)(=O)=O)c1` [Compound 211] gave an EC50 greater than 100 µM.

With `CCOC(=O)c1cc(-c2cccc(C#N)c2)sc1NC(=O)COC(=O)c1cccc(NS(C)(=O)=O)c1` [Compound 212], the EC50 is greater than 100 µM.

The molecule `CCOC(=O)c1cc(-c2ccc(N(C)C)cc2)sc1NC(=O)COC(=O)c1cccc(NS(C)(=O)=O)c1` [Compound 213] came in with an EC50 greater than 100 µM.

The molecule `CCOC(=O)c1c(-c2ccccc2)noc1NC(=O)COC(=O)c1cccc(NS(C)(=O)=O)c1` [Compound 214] showed an EC50 greater than 100 µM.

The molecule `CCOC(=O)c1cc(-c2ccccc2)sc1NC(=O)Cn1cnc2cnc(N)nc21` [Compound 215] had an EC50 greater than 100 µM.

`CCOC(=O)c1cc(-c2ccccc2)sc1NC(=O)Cc1nc(-c2cccc(NS(C)(=O)=O)c2)no1` [Compound 216]: the concentration for a half-maximal effect (EC50) was greater than 100 µM.

Molecule `CON(C)C(=O)c1cc(-c2ccccc2)sc1NC(=O)COC(=O)c1cccc(NS(C)(=O)=O)c1` [Compound 217] had an EC50 greater than 100 µM.

As for `CCOC(=O)c1cc(-c2ccc(O)cc2)sc1NC(=O)COC(=O)c1cccc(NS(C)(=O)=O)c1` [Compound 218], the EC50 was greater than 100 µM.
